Key:
[1] = in water or alcohol; cited from earlier work
[2] = aqueous solution of hydroxyl ethyl cellulose, Pullulan, polyvinyl pyrollidone and propylene glycol alginate, cast to thin film
Excerpt: Alternatively, films of the present invention can be made by dissolving NBD in an aqueous solution of hydroxyl ethyl cellulose, Pullulan, polyvinyl pyrollidone (“PVP”), and propylene glycol alginate (“POGA”). This solution can then be cast to form thin films of the present invention. […] Films made according to the process, in addition to comprising embodiments of the present invention, can be used as the base water-soluble film to which the fluid comprising nicotine is applied. Further, or in the alternative, the aqueous solution thus described can comprise the fluid comprising nicotine for application to the base water-soluble film.

Row | Compound | Solubility [1] | Crystallisation during formation of the film [2]
1 | CN1CCCC1c1cccnc1 (centres unmarked) [Nicotine] | Soluble in water | 
2 | CN1CCCC1c1cccnc1.O.O.O=C(O)C(O)C(O)C(=O)O (centres unmarked) [Nicotine Bitartrate Dihydrate, nicotine bitartrate dihydrate] |  | does not crystallize

Reference: patent US20080260807A1, “Water-Soluble Films Comprising Nicotine” (Bio Progress Technology Limited, priority 2005, published 2008)
